Laboratory results: paper PMC7156458, “Synthetic biology based construction of biological activity-related library of fungal decalin-containing diterpenoid pyrones” (Nature Communications, 2020)

Target: Aβ42 (Homo sapiens, UniProt P05067)
Assay: Th-T (thioflavin-T) assay of Aβ42 aggregation
Assay type: biochemical
Details: for Th-T fluorescence, mean of three wells: Aβ42 aggregation time course

Aβ42, sequence (P05067 672-713): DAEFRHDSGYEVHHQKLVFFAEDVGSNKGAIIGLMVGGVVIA

C=C1CCC2C(C)(CCC=C(C)C)C(O)CCC2(C)C1Cc1c(OC)oc(C)c(C(=O)OC)c1=O (stereo not drawn) [Compound 14]
delay of the nucleation phase: no delay | elongation of Aβ42: partly suppressed the elongation of Aβ42 | first Th-T assay result (Aβ42 (10 μM) ± DPPs (20 μM), room temperature): suppressed Aβ42 | Th-T fluorescence, mean of three wells (reading M117): 1.655 | Th-T fluorescence, mean of three wells (reading M118): 1.6572 | Th-T fluorescence, mean of three wells (reading M119): 1.678 | Th-T fluorescence, mean of three wells (reading M120): 1.679 | Th-T fluorescence, mean of three wells (reading M121): 1.668 | Th-T fluorescence, mean of three wells (reading M122): 1.683 | Th-T fluorescence, mean of three wells (reading M123): 1.681 | Th-T fluorescence, mean of three wells (reading M124): 1.6777 | Th-T fluorescence, mean of three wells (reading M125): 1.687 | Th-T fluorescence, mean of three wells (reading M126): 1.688 | Th-T fluorescence, mean of three wells (reading M127): 1.689 | Th-T fluorescence, mean of three wells (reading M128): 1.7014 | Th-T fluorescence, mean of three wells (reading M129): 1.701 | Th-T fluorescence, mean of three wells (reading M130): 1.6991 | Th-T fluorescence, mean of three wells (Fig. 7a) (column suffix _10, measurement M19): 1.991 | Th-T fluorescence, mean of three wells (Fig. 7a) (column suffix _10, measurement M20): 2.087 | Th-T fluorescence, mean of three wells (Fig. 7a) (column suffix _10, measurement M21): 2.17 | Th-T fluorescence, mean of three wells (Fig. 7a) (column suffix _10, measurement M22): 2.206 | Th-T fluorescence, mean of three wells (Fig. 7a) (column suffix _10, measurement M23): 2.232 | Th-T fluorescence, mean of three wells (Fig. 7a) (column suffix _10, measurement M24): 2.258 | Th-T fluorescence, mean of three wells (Fig. 7a) (column suffix _10, measurement M25): 2.291 | Th-T fluorescence, mean of three wells (Fig. 7a) (column suffix _10, measurement M26): 2.3072 | Th-T fluorescence, mean of three wells (Fig. 7a) (column suffix _10, measurement M27): 2.333 | Th-T fluorescence, mean of three wells (Fig. 7a) (column suffix _10, measurement M28): 2.3263 | Th-T fluorescence, mean of three wells (Fig. 7a) (column suffix _10, measurement M29): 2.338 | Th-T fluorescence, mean of three wells (Fig. 7a) (column suffix _10, measurement M30): 2.363 | Th-T assay signal, mean of three wells (Fig. 7a) (column suffix _10, reading M1): 0.2293 | Th-T assay signal, mean of three wells (Fig. 7a) (column suffix _10, reading M2): 0.2207 | Th-T assay signal, mean of three wells (Fig. 7a) (column suffix _10, reading M3): 0.2333 | Th-T assay signal, mean of three wells (Fig. 7a) (column suffix _10, reading M4): 0.2495 | Th-T assay signal, mean of three wells (Fig. 7a) (column suffix _10, reading M5): 0.2748 | Th-T assay signal, mean of three wells (Fig. 7a) (column suffix _10, reading M6): 0.3168 | Th-T assay signal, mean of three wells (Fig. 7a) (column suffix _10, reading M7): 0.3327 | Th-T assay signal, mean of three wells (Fig. 7a) (column suffix _10, reading M8): 0.3584 | Th-T assay signal, mean of three wells (Fig. 7a) (column suffix _10, reading M9): 0.3937 | Th-T assay signal, mean of three wells (Fig. 7a) (column suffix _10, reading M10): 0.4248 | Th-T assay signal, mean of three wells (Fig. 7a) (column suffix _10, reading M11): 0.4498 | Th-T assay signal, mean of three wells (Fig. 7a) (column suffix _10, reading M12): 0.5064 | Th-T assay signal, mean of three wells (Fig. 7a) (column suffix _10, reading M13): 0.6552 | Th-T assay signal, mean of three wells (Fig. 7a) (column suffix _10, reading M14): 0.8811 | Th-T assay signal, mean of three wells (Fig. 7a) (column suffix _10, reading M15): 1.163 | Th-T assay signal, mean of three wells (Fig. 7a) (column suffix _10, reading M16): 1.433 | Th-T assay signal, mean of three wells (Fig. 7a) (column suffix _10, reading M17): 1.668 | Th-T assay signal, mean of three wells (Fig. 7a) (column suffix _10, reading M18): 1.846 | Fig. 7a Th-T reading, mean of three wells (column suffix _10, reading M85): 2.79 | Fig. 7a Th-T reading, mean of three wells (column suffix _10, reading M86): 2.788 | Fig. 7a Th-T reading, mean of three wells (column suffix _10, reading M87): 2.811 | Fig. 7a Th-T reading, mean of three wells (column suffix _10, reading M88): 2.833 | Fig. 7a Th-T reading, mean of three wells (column suffix _10, reading M89): 2.856 | Fig. 7a Th-T reading, mean of three wells (column suffix _10, reading M90): 2.853 | Fig. 7a Th-T reading, mean of three wells (column suffix _10, reading M91): 2.848 | Fig. 7a Th-T reading, mean of three wells (column suffix _10, reading M92): 2.836 | Fig. 7a Th-T reading, mean of three wells (column suffix _10, reading M93): 2.868 | Fig. 7a Th-T reading, mean of three wells (column suffix _10, reading M94): 2.853 | Fig. 7a Th-T reading, mean of three wells (column suffix _10, reading M95): 2.8555 | Fig. 7a Th-T reading, mean of three wells (column suffix _10, reading M96): 2.819 | Fig. 7a Th-T reading, mean of three wells (column suffix _10, reading M97): 2.823 | Fig. 7a Th-T reading, mean of three wells (column suffix _10, reading M98): 2.843 | Fig. 7a Th-T reading, mean of three wells (column suffix _10, reading M99): 2.862 | Fig. 7a Th-T reading, mean of three wells (column suffix _10, reading M100): 2.849 | Fig. 7a Th-T reading, mean of three wells (column suffix _10, reading M101): 2.83 | Fig. 7a Th-T reading, mean of three wells (column suffix _10, reading M102): 2.84 | Fig. 7a Th-T reading, mean of three wells (column suffix _10, reading M103): 2.843 | Fig. 7a Th-T reading, mean of three wells (column suffix _10, reading M104): 2.878 | Fig. 7a Th-T reading, mean of three wells (column suffix _10, reading M105): 2.894 | Fig. 7a Th-T reading, mean of three wells (column suffix _10, reading M106): 2.859 | Th-T fluorescence, mean of three wells (Fig. 7a) (column suffix _20, measurement M19): 1.051 | Th-T fluorescence, mean of three wells (Fig. 7a) (column suffix _20, measurement M20): 1.16 | Th-T fluorescence, mean of three wells (Fig. 7a) (column suffix _20, measurement M21): 1.235 | Th-T fluorescence, mean of three wells (Fig. 7a) (column suffix _20, measurement M22): 1.279 | Th-T fluorescence, mean of three wells (Fig. 7a) (column suffix _20, measurement M23): 1.352 | Th-T fluorescence, mean of three wells (Fig. 7a) (column suffix _20, measurement M24): 1.3992 | Th-T fluorescence, mean of three wells (Fig. 7a) (column suffix _20, measurement M25): 1.478 | Th-T fluorescence, mean of three wells (Fig. 7a) (column suffix _20, measurement M26): 1.556 | Th-T fluorescence, mean of three wells (Fig. 7a) (column suffix _20, measurement M27): 1.595 | Th-T fluorescence, mean of three wells (Fig. 7a) (column suffix _20, measurement M28): 1.672 | Th-T fluorescence, mean of three wells (Fig. 7a) (column suffix _20, measurement M29): 1.711 | Th-T assay signal, mean of three wells (Fig. 7a) (column suffix _20, reading M1): 0.305 | Th-T assay signal, mean of three wells (Fig. 7a) (column suffix _20, reading M2): 0.2567 | Th-T assay signal, mean of three wells (Fig. 7a) (column suffix _20, reading M3): 0.2803 | Th-T assay signal, mean of three wells (Fig. 7a) (column suffix _20, reading M4): 0.2741 | Th-T assay signal, mean of three wells (Fig. 7a) (column suffix _20, reading M5): 0.2931 | Th-T assay signal, mean of three wells (Fig. 7a) (column suffix _20, reading M6): 0.3005 | Th-T assay signal, mean of three wells (Fig. 7a) (column suffix _20, reading M7): 0.3085 | Th-T assay signal, mean of three wells (Fig. 7a) (column suffix _20, reading M8): 0.3015 | Th-T assay signal, mean of three wells (Fig. 7a) (column suffix _20, reading M9): 0.3254 | Th-T assay signal, mean of three wells (Fig. 7a) (column suffix _20, reading M10): 0.3505 | Th-T assay signal, mean of three wells (Fig. 7a) (column suffix _20, reading M11): 0.3712 | Th-T assay signal, mean of three wells (Fig. 7a) (column suffix _20, reading M12): 0.4273 | Th-T assay signal, mean of three wells (Fig. 7a) (column suffix _20, reading M13): 0.4951 | Th-T assay signal, mean of three wells (Fig. 7a) (column suffix _20, reading M14): 0.5807 | Th-T assay signal, mean of three wells (Fig. 7a) (column suffix _20, reading M15): 0.6574 | Th-T assay signal, mean of three wells (Fig. 7a) (column suffix _20, reading M16): 0.7497 | Th-T assay signal, mean of three wells (Fig. 7a) (column suffix _20, reading M17): 0.8453 | Th-T assay signal, mean of three wells (Fig. 7a) (column suffix _20, reading M18): 0.9743 | Fig. 7a Th-T reading, mean of three wells (column suffix _20, reading M85): 1.842 | Fig. 7a Th-T reading, mean of three wells (column suffix _20, reading M86): 1.882 | Fig. 7a Th-T reading, mean of three wells (column suffix _20, reading M87): 1.842 | Fig. 7a Th-T reading, mean of three wells (column suffix _20, reading M88): 1.862 | Fig. 7a Th-T reading, mean of three wells (column suffix _20, reading M89): 1.848 | Fig. 7a Th-T reading, mean of three wells (column suffix _20, reading M90): 1.855 | Fig. 7a Th-T reading, mean of three wells (column suffix _20, reading M91): 1.818 | Fig. 7a Th-T reading, mean of three wells (column suffix _20, reading M92): 1.795 | Fig. 7a Th-T reading, mean of three wells (column suffix _20, reading M93): 1.7999 | Fig. 7a Th-T reading, mean of three wells (column suffix _20, reading M94): 1.805 | Fig. 7a Th-T reading, mean of three wells (column suffix _20, reading M95): 1.783 | Fig. 7a Th-T reading, mean of three wells (column suffix _20, reading M96): 1.793 | Fig. 7a Th-T reading, mean of three wells (column suffix _20, reading M97): 1.78 | Fig. 7a Th-T reading, mean of three wells (column suffix _20, reading M98): 1.799 | Fig. 7a Th-T reading, mean of three wells (column suffix _20, reading M99): 1.789 | Fig. 7a Th-T reading, mean of three wells (column suffix _20, reading M100): 1.781
